Data from patent publication US5712129A, “Rapamycin derivative with antimicrobial, anticancer and immunomodulation activity” (SmithKline Beecham p. l. c., priority 1993, dated 1998).
Read-outs that look alike come from different tables or passages of the source.

Tested on: Spleen cells
Assay: Mitogenesis assay for immunosuppressive activity (concanavalin A stimulated spleen cells, 3H-thymidine)
Assay type: cell-based, BDF1 female mice
Conditions: Mus musculus, read-out: Mitogenesis (IC50)
Description: Spleen cells for BDF1 female mice were established in RPMI with 10% fetal calf serum at 5×10^6 /mL. One hundred […] of this suspension (5×10^5 cells) were dispensed into 96-well round-bottomed microtiter plates (Linbro, Flow Laboratories). Concanavalin A (5 μg/ml) was added as the mitogenic stimulus, and the final volume in the microtiter wells was adjusted to 200 μL with RPMI. Cell cultures were incubated for 72 hours at 37° C. in a 5% CO2 atmosphere and pulsed with 0.5 μCi ^3 H-thymidine (specific activity […]) for the last 18 hours of the 72 hours culture. The cells were harvested on an automated multiple sample harvester and cell-associated radioactivity counted in a Beckman liquid scintillation counter. The results were expressed as the mean values derived from quadruplicate measurements. Cell viability was determined by trypan blue exclusion after 72 hours of incubation. Compounds to be tested were added to the microtiter plates at the appropriate dilutions prior to the addition of cells.

Row | Compound | IC50 [nM] | IC50 (Concanavalin A 5 μg/ml, 72 hours at 37° C., 3H-thymidine pulse last 18 hours) [nM]
1 | CO[C@H]1C[C@@H]2CC[C@@H](C)[C@@](O)(O2)C(=O)C(=O)N2CCCC[C@H]2C(=O)O[C@H]([C@H](C)C[C@@H]2CC[C@@H](O)[C@H](OC)C2)CC(=O)[C@H](C)/C=C(\C)[C@@H](O)[C@@H](OC)C(=O)[C@H](C)C[C@H](C)/C=C/C=C/C=C/1C [rapamycin] | 1 ± 1 | 
2 | COC1CC2CCC(C)C(O)(O2)C(=O)C(=O)N2CCCCC2C(=O)OC(C(C)CC2CCC(O)C(O)C2)CC(=O)C(C)C=C(C)C(O)C(OC)C(=O)C(C)CC(C)C=CC=CC=C1C (centres unmarked) [42-O-demethylrapamycin] |  | 3
